# Laboratory results published in paper PMC11040665, “Aminothiazolone Inhibitors Disrupt the Protein–RNA Interaction of METTL16 and Modulate the m^6A RNA Modification” (JACS Au, 2024).
# “Also recorded” adds a separate entry of the source.
# Experiments:
# [1] = target: T1, METTL16–MAT2A-hp1 mRNA interaction (METTL16 MTD 1–291, FAM-labeled MAT2A-hp1 RNA) (Homo sapiens, UniProt Q86W50); assay: Fluorescence polarization (FP) assay, disruption of METTL16 binding to FAM-MAT2A-hp1 RNA; conditions: for IC50 class in the FP assay (MAT2A-hp1): 50 nM METTL16 MTD, 5 nM FAM-MAT2A-hp1, given as 'inactive'
# T1 sequence (Q86W50 1-291): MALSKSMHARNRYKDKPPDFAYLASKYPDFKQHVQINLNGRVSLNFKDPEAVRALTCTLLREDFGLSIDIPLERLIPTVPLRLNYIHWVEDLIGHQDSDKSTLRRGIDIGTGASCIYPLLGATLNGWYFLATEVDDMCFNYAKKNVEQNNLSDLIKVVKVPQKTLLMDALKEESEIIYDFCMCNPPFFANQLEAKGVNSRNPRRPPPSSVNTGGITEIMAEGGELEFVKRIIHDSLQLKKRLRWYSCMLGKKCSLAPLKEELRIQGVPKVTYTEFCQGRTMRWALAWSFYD
# Protocol: The binding of METTL16 to the FAM-labeled RNA probe formed a complex that led to a higher FP signal in comparison to that of the unbound RNA probe (Figure 2A). […] The Z-factor of 0.91 indicated the suitability of the assay condition (Figure S2D). […] In both FP assay and EMSA, a final concentration of 50 nM METTL16 and 5 nM FAM-MAT2A-hp was used. The METTL16 MTD (amino acids 1–291) was used in this study unless specifically indicated otherwise.
# The FP assay was performed using 384-well black plates (Corning #4514) in a total reaction volume of 20 μL, with the final concentration of protein and RNA being 50 and 5 nM respectively. Compounds were diluted in FP buffer and incubated with protein for 30 min at room temperature, then FAM-MAT2A-hp1 RNA probe was added and the fluorescence polarization was measured using a TECAN Spark plate reader, under the excitation wavelength of 485 nm and the emission wavelength of 535 nm with bandwidth of 20 nm. 1% DMSO was used as the control. The inhibition was calculated with the equation: inhibition = 100%(Control – X)/(Control – Blank); Control: DMSO with protein and FAM-RNA; Blank: DMSO with FAM-RNA; X: compound with protein and FAM-RNA. The IC50 value was further determined using GraphPad Prism 9. […] The polarization was measured under an excitation wavelength of 630 nm and an emission wavelength of 680 nm with a bandwidth of 20 nm.
# [2] = target: T2, methyltransferase activity of METTL16 MTD toward MAT2A-hp1 (Homo sapiens, UniProt Q86W50); assay: In vitro methylation assay (MTase Glo); assay type: biochemical; conditions: RNA substrate MAT2A-hp1
# T2 construct: METTL16 MTD (1–291) was subcloned to pOPINB plasmid; His tag followed by HRV 3C cleavage site (N, cleaved yes); made in house; host or cells: E. coli Rosetta (DE3)
# T2 sequence (Q86W50 1-291): T1 sequence (Q86W50 1-291)
# Protocol: Next, we evaluated the inhibition of the METTL16 methylation using the MTase Glo assay kit (Promega) measuring the methyltransferase activity based on the formation of the methylation product S-adenosyl homocysteine, which was converted to ADP by the MTase-Glo reagent to trigger a subsequent luciferase reaction (Figure 5E).
# The methyltransferase activity of METTL16 MTD was measured using an MTase Glo kit (Promega V7601) following the manufacturer’s instructions. The reaction was carried out in white 384-well plates (Corning #3824), with a total methyltransferase reaction volume of 8 μL, and the final concentrations of METTL16 MTD, MAT2A-hp1, and SAM were 1, 1, and 10 μM, respectively, and 1% of DMSO was used as a control. […] To use SAM at a different final concentration, the concentration of SAM was adjusted accordingly in a 2× substrate solution.
# [3] = target: T3, METTL16 (1-291)–FAM-MAT2A-hp1 RNA (Homo sapiens, UniProt Q86W50); assay: FP assay after incubating SAM with METTL16; assay type: binding; conditions: SAM incubated with METTL16 before the FP assay
# T3 construct: METTL16 MTD (1–291) was subcloned to pOPINB plasmid; His tag followed by HRV 3C cleavage site (N, cleaved yes); made in house; host or cells: E. coli Rosetta (DE3)
# T3 sequence (Q86W50 1-291): T1 sequence (Q86W50 1-291)
# METTL16 (1-291) = target: T4, METTL16 (1-291) (Homo sapiens, UniProt Q86W50); assay: Covalent binding evaluation by protein LC–MS; conditions: 30 μM METTL16 (1-291), 100 μM compound, 30 or 150 min
# T4 construct: METTL16 MTD (1–291) was subcloned to pOPINB plasmid; His tag followed by HRV 3C cleavage site (N, cleaved yes); made in house; host or cells: E. coli Rosetta (DE3)
# T4 sequence (Q86W50 1-291): T1 sequence (Q86W50 1-291)
# Protocol: To evaluate whether the aminothiazolones covalently bind to METTL16, we performed the LC–MS analysis after incubating the protein with aminothiazolones for 30 and 150 min, respectively. In the case of covalent binding, we would expect to observe the formation of covalent adducts, which would accrue over time. […] Besides the LC–MS analysis result, an irreversible inhibition counter screening indicated the reversible inhibitory activity of the aminothiazolones (Figure S8A).
# Figure S7. Covalent evaluation of METTL16 inhibitors via LC-MS. (A) Deconvoluted mass spectrum of 30 µM METTL16 (1-291) incubated with 1% DMSO for 30 min (left) and 150 min (right). (B), (C), (D) Deconvoluted […]
# (right). Expected Mass for METTL16 (1-291), 33455.7 Da. The observed small mass shift of ~50 Da appeared in both the DMSO control and compound-treated samples was probably formed by the solvent used in the LC-MS.
# (1 picture or pasted object on this page, not shown here)
# For computational docking analysis of aminothiazolones to the RNA binding site of METTL16 (PDB code: 6B91)2 Schrödinger® Maestro 12.3 was used. […]
# Chemical states were generated with the ligand preparation module and METTL16 conformation with the protein preparation module. […] The glide dock module was used and the results were evaluated according to interactions between small molecules and METTL16, small molecule orientations, docking scores and solvent exposure patterns. […]
# METTL16 MTD protein was diluted in SEC buffer (20mM pH 7.5, 200 mM NaCl, 0.5 mM TCEP,5% v/v glycerol) to a final concentration of 30 µM, and incubated with DMSO or 100 μM compound (final 1% DMSO) at room temperature. After incubation (30 min or 150 min), the samples were analyzed on an Agilent 1260 II Infinity system equipped with an electrospray ion source in positive mode, run through a Desalting cartridge (AdvanceBio Desalting-RP, 2.1 mm, 12.5mm, Agilent) with a gradient of 5-80% HPLC-grade acetonitrile (+ 0.1% TFA) in HPLC-grade water (+ 0.1% TFA) (flowrate: 0.4 mL/min, runtime: 6 min). […]
# MDA-MB-231 cells = assay: Colony formation assay; assay type: cell-based, human; conditions: 7 days, three tested concentrations
# Protocol: MDA-MB-231 cells were collected and seeded with the density of 1000 cells per well into 24-well plates; after being cultured overnight, the medium was exchanged and treated with indicated compounds or DMSO (0.5%) as the control. The medium change and treatment were performed every 3 days. After 7 days, the cell culture medium was discarded, and cells were washed with PBS and fixed with 4% paraformaldehyde solution at room temperature for 15 min; the paraformaldehyde solution was removed, and cells were washed with PBS again to remove the paraformaldehyde. Then cells were stained with 0.1% (w/v) crystal violet. After staining for 15 min, the cells were washed with H2O to remove the extra dye and then photographed.
# [4] = target: T5, METTL16 MTD–GGACU-containing RNA interaction (Homo sapiens, UniProt Q86W50); assay: EMSA with GGACU-containing RNA; conditions: 5 nM RNA, 600 nM METTL16 MTD
# T5 sequence (Q86W50 1-291): T1 sequence (Q86W50 1-291)
# Protocol: METTL16 MTD protein (1–291) was incubated with the indicated compound or DMSO in a buffer containing 20 mM HEPES, pH 7.5, 50 mM NaCl, 0.05% v/v Tween 20, and 0.05 mg/mL BGG at room temperature for 30 min; subsequently, FAM-MAT2A-hp1 RNA probe was added and incubated at room temperature for 10 min, the final of protein and RNA are 50 and 5 nM respectively, and 1% DMSO was used as the control. […] The gel was detected and imaged by Chemi Doc MP (Bio-Rad). […] EMSA for testing compounds with GGAUC-motif containing RNA and METTL16 MTD interaction was performed using the method described above, expecting that the final of METTL16 MTD protein and FAM-labeled-GGACU RNA are 600 nM and 5 nM respectively. EMSA for RNA binding: indicated concentrations of fluorophore-labeled RNA were incubated with indicated concentrations of protein in EMSA buffer for 15 min at room temperature, then loaded to native PAGE gels and imaged with the method described above.
# [5] = target: T6, METTL16 MTD–U6 snRNA Δ interaction (Homo sapiens, UniProt Q86W50); assay: FP assay with Cy5-labeled U6 snRNA Δ; assay type: binding
# T6 construct: METTL16 MTD (1–291) was subcloned to pOPINB plasmid; His tag followed by HRV 3C cleavage site (N, cleaved yes); made in house; host or cells: E. coli Rosetta (DE3)
# T6 sequence (Q86W50 1-291): T1 sequence (Q86W50 1-291)
SMILES,IC50 [1],IC50 class in the FP assay (MAT2A-hp1) [1],further results
COc1ccc(S(=O)(=O)NC2=NC(=O)C(=C3C(=O)Nc4ccc(C)cc43)S2)cc1 [Compound 2],24.3 ± 5.3 µM,,
COc1ccc(S(=O)(=O)NC2=NC(=O)C(=C3C(=O)Nc4ccc(OC)cc43)S2)cc1 [Compound 3],23.8 ± 5.5 µM,,
COc1ccc(S(=O)(=O)NC2=NC(=O)C(=C3C(=O)Nc4ccc([N+](=O)[O-])cc43)S2)cc1 [Compound 4],8.2 ± 0.76 µM,,
COc1ccc(S(=O)(=O)NC2=NC(=O)C(=C3C(=O)Nc4ccc(Br)cc43)S2)cc1 [Compound 8],12.4 ± 2.8 µM,,
COc1ccc(S(=O)(=O)NC2=NC(=O)C(=C3C(=O)N(c4ccccc4)c4ccccc43)S2)cc1 [Compound 10],,inactive,
COc1ccc(S(=O)(=O)NC2=NC(=O)C(=C3C(=O)Nc4c(F)cccc43)S2)cc1 [Compound 11],28.9 ± 5.8 µM,,
COc1ccc(S(=O)(=O)NC2=NC(=O)C(=C3C(=O)Nc4cc(F)ccc43)S2)cc1 [Compound 12],,inactive,
COc1ccc(S(=O)(=O)NC2=NC(=O)C(=C3C(=O)Nc4ccc(F)cc43)S2)cc1 [Compound 13],26.9 ± 3.5 µM,,
COc1ccc(S(=O)(=O)NC2=NC(=O)C(=C3C(=O)Nc4c(Cl)cccc43)S2)cc1 [Compound 14],57.6 ± 1.3 µM,,
COc1ccc(S(=O)(=O)NC2=NC(=O)C(=C3C(=O)Nc4cc(Cl)ccc43)S2)cc1 [Compound 15],26.4 ± 5 µM,,
COc1ccc(S(=O)(=O)NC2=NC(=O)C(=C3C(=O)N(C)c4ccc(F)cc43)S2)cc1 [Compound 16],15 ± 1 µM,,
COc1ccc(S(=O)(=O)NC2=NC(=O)C(=C3C(=O)N(C)c4cc(F)ccc43)S2)cc1 [Compound 17],22.8 ± 2.3 µM,,
COc1ccc(S(=O)(=O)NC2=NC(=O)C(=Cc3cc4ccccc4[nH]3)S2)cc1 [Compound 18],23.2 ± 2.7 µM,,
Cc1ccc(S(=O)(=O)NC2=NC(=O)C(=C3C(=O)Nc4ccc(Cl)cc43)S2)cc1 [Compound 19],13.5 ± 1.7 µM,,
O=C1N=C(NS(=O)(=O)c2ccccc2)SC1=C1C(=O)Nc2ccc(Cl)cc21 [Compound 20],15.7 ± 1.6 µM,,
O=C1N=C(NS(=O)(=O)c2cccc([N+](=O)[O-])c2)SC1=C1C(=O)Nc2ccc(Cl)cc21 [Compound 22],12 ± 2 µM,,
CC(C)(C)c1ccc(S(=O)(=O)NC2=NC(=O)C(=C3C(=O)Nc4ccc(Cl)cc43)S2)cc1 [Compound 23],,inactive,

SMILES,IC50 [1],IC50 class in the FP assay (MAT2A-hp1) [1],further results
O=C1N=C(NS(=O)(=O)c2ccc(F)cc2Cl)SC1=C1C(=O)Nc2ccc(Cl)cc21 [Compound 24],14 ± 1.5 µM,,
O=C1N=C(NS(=O)(=O)c2ccc(C3CCCCC3)cc2)SC1=C1C(=O)Nc2ccc(Cl)cc21 [Compound 25],,inactive,
O=C1N=C(NS(=O)(=O)c2ccc(-c3ccccc3)cc2)SC1=C1C(=O)Nc2ccc(Cl)cc21 [Compound 26],,inactive,
CS(=O)(=O)NC1=NC(=O)C(=C2C(=O)Nc3ccc(Cl)cc32)S1 [Compound 29],36.2 ± 2.8 µM,,
O=C1N=C(NS(=O)(=O)c2ccc(C(F)(F)F)cc2)SC1=C1C(=O)Nc2ccc(Cl)cc21 [Compound 30],13.6 ± 3.6 µM,,
O=C1N=C(NS(=O)(=O)c2ccc3ccccc3c2)SC1=C1C(=O)Nc2ccc(Cl)cc21 [Compound 31],9.9 ± 1.3 µM,,
O=C1N=C(NS(=O)(=O)c2ccc(F)cc2)SC1=C1C(=O)Nc2ccc(Cl)cc21 [Compound 33],30.4 ± 10.5 µM,,
Cc1ccc(C(=O)NC2=NC(=O)C(=C3C(=O)Nc4ccc(Cl)cc43)S2)cc1 [Compound 34],,inactive,
COc1ccc(C(=O)NC2=NC(=O)C(=C3C(=O)Nc4ccc(Cl)cc43)S2)cc1 [Compound 35],,inactive,
COc1ccc(C(=O)NC2=NC(=O)C(=C3C(=O)Nc4ccc(Cl)cc43)S2)cc1OC [Compound 36],,inactive,
O=C1N=C(NC(=O)c2ccc(F)cc2)SC1=C1C(=O)Nc2ccc(Cl)cc21 [Compound 37],,inactive,
COc1ccc(S(=O)(=O)NC2=NC(=O)C(=C3C(=O)Nc4ccc(Cl)cc43)O2)cc1 [Compound 38],,inactive,"inhibitory activity against METTL16 in the FP assay, in words ([1]; FAM-MAT2A-hp1 RNA): did not show inhibitory activity"
CN1C(=O)C(=C2SC(NS(=O)(=O)c3ccc(C(=O)O)cc3)=NC2=O)c2cc([N+](=O)[O-])ccc21 [Compound 46],2 µM,,"inhibition of the methyltransferase activity of METTL16 MTD, in words [2]: dose-dependently inhibited; also recorded: potent inhibitory activity; IC50 under different SAM concentrations (FP assay), in words [3]: remained; covalent adduct formation with METTL16 (LC–MS) (METTL16 (1-291)): no such covalent adduct with a mass shift was observed; inhibition on colony formation, in words (MDA-MB-231 cells): did not show obvious inhibition on colony formation; inhibition of METTL16–GGACU RNA binding in EMSA, in words [4]: dose-dependently inhibited; IC50 [5]: 2.8 µM"
COC(=O)c1ccc(S(=O)(=O)NC2=NC(=O)C(=C3C(=O)N(C)c4ccc(Br)cc43)S2)cc1 [Compound 48],29.4 ± 7.5 µM,,"fold decrease in inhibitory activity (FP assay) ([1]; 42 compared to compound 4, methyl ester 48 compared to the carboxylic acid analogue): 20 fold"
CN1C(=O)C(=C2SC(NS(=O)(=O)c3cccc(C(=O)O)c3)=NC2=O)c2cc(Br)ccc21 [Compound 49],3 µM,,IC50 [5]: 5.3 µM
O=C1CSC(NS(=O)(=O)c2ccccc2)=N1 [Compound Ia],> 100 µM,inactive,
